Measured values as given in patent publication US7812142B2, “Pentose derivatives as anti-hyperglycemic drugs” (Yissum Research Development Company of the Hebrew …, priority 2002, dated 2010).

Key:
C2 myotubes = assay: dGlc uptake assay in C2 myotubes; type: cell-based, mouse
Protocol: (§1) The time-course of D-xylose effect in two types of skeletal muscle cells (L8 myocytes and C2 myotubes) was studied. L8 myocytes and C2 myotubes preconditioned in 20 mM glucose were incubated with 20 mM xylose. After 90 min the cells were washed and incubated with 20 mM glucose, and subjected to a deoxyglucose dGlc uptake assay (14).
The inventors have also measured the effect of different doses of D-xylose in C2 myotubes. C2 myotubes preconditioned with 20 mM glucose received fresh medium containing 20 mM glucose or increasing concentrations of D-xylose. Standard dGlc uptake assay was performed after 1 hr incubation. […] D-xylose augmented the rate of hexose transport ˜2-fold within 1-2 hr; half-maximal stimulation was observed within 20-30 min, as shown in FIG. 2.
However, in the above experiments the cells were exposed to D-xylose after removal of the conditioning glucose concentration. […] The inventors therefore added 20 mM D-xylose to C2 myotubes in the presence of 8 or 16 mM glucose and followed its effect.
(§2) It has shown before by the inventors of the present invention that deoxyglucose (dGlc) depresses the hexose transport system in myocytes and that a subsequent incubation with low (even no) glucose fails to reverse this effect of dGlc [Sasson, S et al (1997)]. The inventors have therefore measured the effect of D-xylose on rate of hexose transport following treatment with dGlc. In one experiment, C2 myotubes preconditioned with 2 mM glucose received fresh medium containing 2 mM dGlc. A portion of the cells were washed after 30 min and received 20 MM D-xylose or 2 mM D-glucose, and subjected to a dGlc uptake assay at different time points. In another experiment, L8 myocytes preconditioned with 2 mM glucose were washed and incubated with 2 mM xylose or 2 mM dGlc. A portion of the cells were washed again after 2 hr and incubated with 20 mM xylose, and subjected to a dGlc uptake assay at different time points.
(§3) Uptake assay of the tritiated glucose analogue, 2-deoxy-D-glucose, is routinely performed as described in [Sasson, S. and Cerasi, E. (1986) J. Biol. Chem. 261, 16827-16833].

L8 myocytes = assay: [3H]-2-deoxy-D-glucose (dGlc) uptake assay in L8 myocytes; type: cell-based
Protocol: as §1, §2
This conclusion is also supported by the finding of the a better ability of D-xylose than the other pentoses to reverse 2-deoxy-D-glucose-induced downregulation of the hexose transport system in L8 myocytes. L8 myocytes were preconditioned with 2 mM glucose, washed and incubated with 2 mM dGlc. After 30 min a portion of the cells were washed again and incubated with 20 mM xylose, ribose, arabinose or lyxose. Cells were subjected to the dGlc uptake assay at various time points.
as §3

L6 myotubes = assay: dGlc uptake assay in L6 myotubes; type: cell-based, rat; conditions: 60 μM inhibitor, 23.0 mM glucose (FIG. 11A); EH-40 data not shown
Protocol: FIG. 10: Western blot depicting effect of 3-O-propyl-D-xylose (EH-114), and 1,3-O-dimethylxylopyranoside (EH-101) on the total cell content and plasma membrane abundance of GLUT-4 in the absence or presence of insulin. L6 myotubes were maintained for 48 hr at 23 mM Glucose. The cells were than washed and received fresh medium containing the indicated additions and incubated for additional […]. Insulin was added during the last 30 min of incubation before the dGlc uptake assay.
FIG. 11A: Effect of LY-249002, a PI3-kinase inhibitor, on insulin, D-xylose, EH-101 and EH-114-mediated glucose uptake. L6 myotubes were treated as described in the legend to FIG. 10. The glucose concentration in the culture medium was 23.0 mM. The concentration of LY-294002 was 60 μM. At the end of incubation the cells were taken for the standard dGlc uptake assay. Mean±SEM, n=3.
GLUT-1 and GLUT-4 mediate glucose entry into L6 myotubes. It is established that GLUT-4 is translocated effectively and rapidly to the plasma membrane upon insulin treatment. The inventors looked at the effect of 3-O-propyl-D-xylose EH-114) and 1,3-O-dimethylxylopyranoside (EH-101) on the total cell content and plasma membrane abundance of these transporters in the absence or presence of insulin. L6 myotubes were maintained at 5.0 or 23.0 mM glucose for 48 hr and EH-114 and EH-101 were present during the last 24 hr. The cells were then taken for the standard [^3H]-2-deoxy-D-glucose uptake assay and for the biotinylation procedure for determining the amount of GLUT-1 and GLUT-4 in the plasma membrane. High glucose levels decreased the hexose transport rate by ˜50%. Insulin augmented the transport nearly 2-fold in both cases. EH-114 and EH-101 increased the transport rate 2-3-fold in the absence of insulin. Together with insulin the uptake rate was increased nearly 3-fold.
The inventors also tested the hypothesis that the active D-xylose derivatives augment the hexose transport capacity in L6 myotubes by translocating GLUT-4 to the plasma membrane not via the common insulin-regulated pathway. For this experiment, a selective inhibitor of the enzyme PI3-kinase, LY-249002, which is a key enzyme in the cellular transduction mechanism of insulin, was utilized. […] These findings also agree well with the longer onset of action of these derivatives as compared to the rapid action of insulin. Similar results were obtained when LY-249002 was present together with the derivatives throughout the entire incubation period.
as §3

[1] = Half-life of D-xylose measured in rats; conditions: rat, in vivo
[2] = tested on: glucose uptake in cultured cells; assay: In vitro glucose uptake / hexose transport in cultured cells with xylose derivatives (Table 2); type: cell-based
Protocol: Table 2 summarizes in vitro results obtained with some of these newly synthesized xylose derivatives.
as §3
All new compounds are screened and tested first in various insulin-sensitive cell cultures used routinely in the laboratory (skeletal muscle and adipose cell lines). In addition these drugs were tested in non-insulin-sensitive cells such as primary cultures of bovine and porcine vascular endothelial and smooth muscle cells. Active compounds were tested ex-vivo on isolated rat soleus muscles. All cell cultures and tissues were maintained under hyperglycemic condition prior to the addition of the test compounds. Dose-response and time-course experiments determine which of the derivatives are subsequently tested in animal models. For each potent compound the total cell content and plasma membrane abundance of GLUT-1 and GLUT-4 was determined, as described above. The same biotinylation technique was employed to determine the total and plasma membrane content of both transporters in isolated mouse or rat soleus muscles treated with potent compounds.

[3] = 20 mM xylose, cells preconditioned in 20 mM glucose (FIG. 1)

effect of PI3-kinase inhibitor LY-249002 on the substance's stimulation of hexose transport (L6 myotubes): failed to affect
half-life [1]: 30 to 60 min
EC50 ([2]; EC = Effective concentration): 12 mM
SMILES: O=C[C@H](O)[C@@H](O)[C@H](O)CO [D-xylose]
time to half-maximal stimulation (C2 myotubes): 20 to 30 min
rate of hexose transport downregulated by dGlc (C2 myotubes; 20 mM D-xylose after 30 min 2 mM dGlc (FIG. 4A)): increased the rate of hexose transport
hexose transport in the presence of glucose (C2 myotubes; 20 mM D-xylose with 8 or 16 mM glucose (FIG. 3)): augment hexose transport
effect of pentoses on the rate of hexose transport (C2 myotubes; 20 mM pentose, preconditioned with 20 mM glucose (FIG. 7)): most effective pentose
rate of glucose transport (C2 myotubes; [3]): increases the rate of glucose transport
concentration at which maximal effect is obtained (C2 myotubes; dose-response, 1 hr incubation, preconditioned with 20 mM glucose (FIG. 2)): 20 mM
augmentation of the rate of hexose transport (C2 myotubes; within 1-2 hr): ~2 fold
reversal of 2-deoxy-D-glucose-induced downregulation of the hexose transport system (L8 myocytes; 20 mM pentose after 30 min 2 mM dGlc (FIG. 8)): better than any of the other pentoses
rate of hexose transport downregulated by dGlc (L8 myocytes; 20 mM xylose after 2 hr 2 mM dGlc (FIG. 4B)): increased the rate of hexose transport
rate of glucose transport (L8 myocytes; [3]): increases the rate of glucose transport
Fold Increase of Glucose Uptake [2]: ~2.0 fold
ECmax ([2]; EC = Effective concentration): 20 mM
time to loss of activity after being removed ([2]; after being washed from cell cultures): 10 to 20 min
